Columns and labels:
DU-145 = experiment: Antiproliferative activity against human DU-145 cells assessed as cell growth inhibition at 10 uM incubated for 24 hrs by sulforhodamine B assay; type: functional; conditions: read-out: GI
MOLT-4 = experiment: Antiproliferative activity against human MOLT-4 cells assessed as cell growth inhibition at 10 uM incubated for 24 hrs by sulforhodamine B assay; type: functional; conditions: read-out: GI
NCI-H460 = experiment: Antiproliferative activity against human NCI-H460 cells assessed as cell growth inhibition at 10 uM incubated for 24 hrs by sulforhodamine B assay; type: functional; conditions: read-out: GI
K562 = experiment: Antiproliferative activity against human K562 cells assessed as cell growth inhibition at 10 uM incubated for 24 hrs by sulforhodamine B assay; type: functional; conditions: read-out: GI
CAKI-1 = experiment: Antiproliferative activity against human CAKI-1 cells assessed as cell growth inhibition at 10 uM incubated for 24 hrs by sulforhodamine B assay; type: functional; conditions: read-out: GI
MDA-MB-468 = experiment: Antiproliferative activity against human MDA-MB-468 cells assessed as cell growth inhibition at 10 uM incubated for 24 hrs by sulforhodamine B assay; type: functional; conditions: read-out: GI
MDA-MB-231 [1] = experiment: Induction of apoptosis in human MDA-MB-231 cells assessed as late apoptotic cells measured after 48 hrs by Annexin-V-FITC/propidium iodide staining based flow cytometry (reference value: 0.91%); type: functional
NCI-H23 = experiment: Antiproliferative activity against human NCI-H23 cells assessed as cell growth inhibition at 10 uM incubated for 24 hrs by sulforhodamine B assay; type: functional; conditions: read-out: GI
Hs-578T = experiment: Antiproliferative activity against human HS-578T cells assessed as cell growth inhibition at 10 uM incubated for 24 hrs by sulforhodamine B assay; type: functional; conditions: read-out: GI
SF-295 = experiment: Antiproliferative activity against human SF-295 cells assessed as cell growth inhibition at 10 uM incubated for 24 hrs by sulforhodamine B assay; type: functional; conditions: read-out: GI
MCF7 [2] = experiment: Induction of apoptosis in human MCF cells assessed as viable cells measured after 48 hrs by Annexin-V-FITC/propidium iodide staining based flow cytometry (reference value: 98.15%); type: functional
SNB-75 = experiment: Antiproliferative activity against human SNB-75 cells assessed as cell growth inhibition at 10 uM incubated for 24 hrs by sulforhodamine B assay; type: functional; conditions: read-out: GI
NCI/ADR-RES [3] = experiment: Antiproliferative activity against human NCI-ADR-RES cells assessed as cell growth inhibition at 10 uM incubated for 24 hrs by sulforhodamine B assay; type: functional; conditions: read-out: GI
A498 = experiment: Antiproliferative activity against human A498 cells assessed as cell growth inhibition at 10 uM incubated for 24 hrs by sulforhodamine B assay; type: functional; conditions: read-out: GI
MCF7 [4] = experiment: Cell cycle arrest in human MCF7 cells assessed as accumulation at sub G1 phase incubated for 48 hrs by propidium iodide staining based flow cytometric analysis (reference value: 1.09 %); type: functional
T47D = experiment: Antiproliferative activity against human T47D cells assessed as reduction in cell viability incubated for 24 hrs by sulforhodamine B assay; type: functional, cell-based
MDA-MB-231 [5] = experiment: Induction of apoptosis in human MDA-MB-231 cells assessed as necrotic cells measured after 48 hrs by Annexin-V-FITC/propidium iodide staining based flow cytometry (reference value: 1.13%); type: functional
MCF7 [6] = experiment: Induction of apoptosis in human MCF cells assessed as early apoptotic cells measured after 48 hrs by Annexin-V-FITC/propidium iodide staining based flow cytometry (reference value: 0.09%); type: functional
UO-31 = experiment: Antiproliferative activity against human UO-31 cells assessed as cell growth inhibition at 10 uM incubated for 24 hrs by sulforhodamine B assay; type: functional; conditions: read-out: GI
MDA-MB-231 [7] = experiment: Induction of apoptosis in human MDA-MB-231 cells assessed as viable cells measured after 48 hrs by Annexin-V-FITC/propidium iodide staining based flow cytometry (reference value: 97.93%); type: functional
786-0 = experiment: Antiproliferative activity against human 786-0 cells assessed as cell growth inhibition at 10 uM incubated for 24 hrs by sulforhodamine B assay; type: functional; conditions: read-out: GI
MDA-MB-231 [8] = experiment: Cell cycle arrest in human MDA-MB-231 cells assessed as accumulation at G1 phase incubated for 48 hrs by propidium iodide staining based flow cytometric analysis (reference value: 55.63 %); type: functional
COLO 205 [9] = experiment: Antiproliferative activity against human COLO 205 cells assessed as cell growth inhibition at 10 uM incubated for 24 hrs by sulforhodamine B assay; type: functional; conditions: read-out: GI
PC-3 = experiment: Antiproliferative activity against human PC-3 cells assessed as cell growth inhibition at 10 uM incubated for 24 hrs by sulforhodamine B assay; type: functional; conditions: read-out: GI
MDA-MB-231 [10] = experiment: Antiproliferative activity against human MDA-MB-231 cells assessed as cell growth inhibition at 10 uM incubated for 24 hrs by sulforhodamine B assay; type: functional; conditions: read-out: GI
MDA-MB-231 [11] = experiment: Antiproliferative activity against human MDA-MB-231 cells assessed as reduction in cell viability incubated for 24 hrs by sulforhodamine B assay; type: functional, cell-based; conditions: MDA-MB-231, 24 h
OVCAR-4 = experiment: Antiproliferative activity against human OVCAR-4 cells assessed as cell growth inhibition at 10 uM incubated for 24 hrs by sulforhodamine B assay; type: functional; conditions: read-out: GI
EKVX = experiment: Antiproliferative activity against human EKVX cells assessed as cell growth inhibition at 10 uM incubated for 24 hrs by sulforhodamine B assay; type: functional; conditions: read-out: GI
MDA-MB-231 [12] = experiment: Cell cycle arrest in human MDA-MB-231 cells assessed as accumulation at G2 phase incubated for 48 hrs by propidium iodide staining based flow cytometric analysis (reference value: 20.65 %); type: functional
SF-268 = experiment: Antiproliferative activity against human SF-268 cells assessed as cell growth inhibition at 10 uM incubated for 24 hrs by sulforhodamine B assay; type: functional; conditions: read-out: GI
SK-MEL-28 = experiment: Antiproliferative activity against human SK-MEL-28 cells assessed as cell growth inhibition at 10 uM incubated for 24 hrs by sulforhodamine B assay; type: functional; conditions: read-out: GI
COLO 205 [13] = experiment: Antiproliferative activity against human COLA 205 cells assessed as reduction in cell viability incubated for 24 hrs by sulforhodamine B assay; conditions: COLO 205, 24 h
KM12 = experiment: Antiproliferative activity against human KM12 cells assessed as cell growth inhibition at 10 uM incubated for 24 hrs by sulforhodamine B assay; type: functional; conditions: read-out: GI
NCI-H522 = experiment: Antiproliferative activity against human NCI-H522 cells assessed as cell growth inhibition at 10 uM incubated for 24 hrs by sulforhodamine B assay; type: functional; conditions: read-out: GI
SK-OV-3 = experiment: Antiproliferative activity against human SK-OV-3 cells assessed as cell growth inhibition at 10 uM incubated for 24 hrs by sulforhodamine B assay; type: functional; conditions: read-out: GI
NCI/ADR-RES [14] = experiment: Antiproliferative activity against human NCI-ADR-RES cells assessed as reduction in cell viability incubated for 24 hrs by sulforhodamine B assay
UACC-62 = experiment: Antiproliferative activity against human UACC-62 cells assessed as cell growth inhibition at 10 uM incubated for 24 hrs by sulforhodamine B assay; type: functional; conditions: read-out: GI
MCF7 [15] = experiment: Cell cycle arrest in human MCF7 cells assessed as accumulation at G1 phase incubated for 48 hrs by propidium iodide staining based flow cytometric analysis (reference value: 42.84 %); type: functional
MCF7 [16] = experiment: Induction of apoptosis in human MCF cells assessed as necrotic cells measured after 48 hrs by Annexin-V-FITC/propidium iodide staining based flow cytometry (reference value: 0.94%); type: functional
SNB-19 = experiment: Antiproliferative activity against human SNB-19 cells assessed as cell growth inhibition at 10 uM incubated for 24 hrs by sulforhodamine B assay; type: functional; conditions: read-out: GI

COc1ccc(OC)c(-c2nc(SCC(=O)c3ccc(Br)cc3)nc(Nc3ccc(S(N)(=O)=O)cc3)c2C#N)c1
inhibition of growth at 10 µM (DU-145): 44.9%
inhibition of growth at 10 µM (MOLT-4): 71.5%
inhibition of growth at 10 µM (NCI-H460): 79.2%
inhibition of growth at 10 µM (K562): 77.5%
inhibition of growth at 10 µM (CAKI-1): 65.6%
inhibition of growth at 10 µM (MDA-MB-468): 56.1%
Activity (MDA-MB-231 [1]): 5.2%
inhibition of growth at 10 µM (NCI-H23): 41.6%
inhibition of growth at 10 µM (Hs-578T): 86.6%
inhibition of growth at 10 µM (SF-295): 66.9%
Activity (MCF7 [2]): 88.17%
inhibition of growth at 10 µM (SNB-75): 77.8%
inhibition of growth at 10 µM (NCI/ADR-RES [3]): 25.6%
inhibition of growth at 10 µM (A498): 73.6%
Activity (MCF7 [4]): 35.5%
IC50 (T47D): 2.4 µM
Activity (MDA-MB-231 [5]): 7.18%
Activity (MCF7 [6]): 0.73%
inhibition of growth at 10 µM (UO-31): 40.8%
Activity (MDA-MB-231 [7]): 87.15%
inhibition of growth at 10 µM (786-0): 58.6%
Activity (MDA-MB-231 [8]): 39.7%
inhibition of growth at 10 µM (COLO 205 [9]): 31.6%
inhibition of growth at 10 µM (PC-3): 64.7%
inhibition of growth at 10 µM (MDA-MB-231 [10]): 37%
IC50 (MDA-MB-231 [11]): 2.4 µM
inhibition of growth at 10 µM (OVCAR-4): 42.6%
inhibition of growth at 10 µM (EKVX): 36.3%
Activity (MDA-MB-231 [12]): 30.07%
inhibition of growth at 10 µM (SF-268): 43.3%
inhibition of growth at 10 µM (SK-MEL-28): 42.3%
IC50 (COLO 205 [13]): 13.3 µM
inhibition of growth at 10 µM (KM12): 79.1%
inhibition of growth at 10 µM (NCI-H522): 52%
inhibition of growth at 10 µM (SK-OV-3): 20.1%
IC50 (NCI/ADR-RES [14]): 33.7 µM
inhibition of growth at 10 µM (UACC-62): 57.3%
Activity (MCF7 [15]): 5.77%
Activity (MCF7 [16]): 7.15%
inhibition of growth at 10 µM (SNB-19): 50.1%

Source: ChEMBL document CHEMBL5038625, “Application of the dual-tail approach for the design and synthesis of novel Thiopyrimidine-Benzenesulfonamide hybrids as selective carbonic anhydrase inhibitors” (Eur J Med Chem, 2022)
